One experiment concerns the target T1, Estrogen receptor (Homo sapiens, UniProt P03372).
T1 sequence (P03372 whole entry): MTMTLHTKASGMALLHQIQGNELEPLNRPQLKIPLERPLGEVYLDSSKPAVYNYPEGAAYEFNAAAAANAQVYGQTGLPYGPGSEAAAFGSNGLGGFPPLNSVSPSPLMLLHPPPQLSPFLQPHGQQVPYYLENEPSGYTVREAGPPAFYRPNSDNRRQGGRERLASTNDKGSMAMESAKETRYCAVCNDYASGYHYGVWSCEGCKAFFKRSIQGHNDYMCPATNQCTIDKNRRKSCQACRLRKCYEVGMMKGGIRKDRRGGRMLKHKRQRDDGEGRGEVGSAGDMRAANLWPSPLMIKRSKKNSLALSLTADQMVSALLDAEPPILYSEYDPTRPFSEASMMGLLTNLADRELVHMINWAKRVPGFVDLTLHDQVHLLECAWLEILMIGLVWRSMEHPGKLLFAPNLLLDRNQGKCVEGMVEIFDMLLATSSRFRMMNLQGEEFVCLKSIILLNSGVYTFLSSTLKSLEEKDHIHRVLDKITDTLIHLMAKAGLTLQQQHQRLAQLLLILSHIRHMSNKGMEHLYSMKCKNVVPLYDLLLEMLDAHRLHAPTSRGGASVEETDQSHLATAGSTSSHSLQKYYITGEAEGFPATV
The experiment is classed as functional, cell-based, HEK293.
Description: Effect on transactivation of ALP gene expression in HEK293 cells transfected with hERalpha
`C[C@]12CCC3C(CC=C4C[C@@H](O)CC[C@@]43/C=C\Br)C1CC[C@@H]2O` (stereo partly specified): the EC50 is greater than 1 µM.

`C/C=C\[C@]12CC[C@H](O)CC1=CCC1C2CC[C@@]2(C)C1CC[C@@H]2O` (stereo partly specified): the EC50 stood at 0.344 µM. That is a sub-micromolar value.

Take `C=C[C@]12CC[C@H](O)CC1=CCC1C2CC[C@@]2(C)C1CC[C@@H]2O` (stereo partly specified): the EC50 was 0.982 µM.

`CC#C[C@]12CC[C@H](O)CC1=CCC1C2CC[C@@]2(C)C1CC[C@@H]2O` (stereo partly specified) had an EC50 of 1 µM. The EC50 values of the last two compounds are within 1.5-fold of each other.

Take `CO/C=C/[C@]12CC[C@H](O)CC1=CCC1C2CC[C@@]2(C)C1CC[C@@H]2O` (stereo partly specified): a half-maximal effect (EC50) was put at 0.583 µM. This EC50 is about 1.7-fold lower than that of the compound before.

In the case of `C[C@]12CCC3C(CC=C4C[C@@H](O)CC[C@@]43/C=C/Br)C1CC[C@@H]2O` (stereo partly specified), the EC50 is greater than 1 µM.

On to `C[C@]12CCC3C(CC=C4C[C@@H](O)CC[C@@]43CO)C1CC[C@@H]2O` (stereo partly specified), for which the EC50 is greater than 1 µM.

The compound `C[C@]12CCC3C(CC=C4C[C@@H](O)CC[C@@]43CC=O)C1CC[C@@H]2O` (stereo partly specified) registered an EC50 greater than 1 µM.

In the case of `C=CC[C@]12CC[C@H](O)CC1=CCC1C2CC[C@@]2(C)C1CC[C@@H]2O` (stereo partly specified), the EC50 amounted to 1 µM.

As to `C[C@]12CCC3C(CC=C4C[C@@H](O)CC[C@@]43/C=C\F)C1CC[C@@H]2O` (stereo partly specified), the EC50 stood at 0.622 µM. Against the preceding compound, the EC50 is about 1.6-fold lower.

For the next experiment, the target named is T2, Estrogen receptor beta (Homo sapiens, UniProt Q92731).
T2 sequence (Q92731 whole entry): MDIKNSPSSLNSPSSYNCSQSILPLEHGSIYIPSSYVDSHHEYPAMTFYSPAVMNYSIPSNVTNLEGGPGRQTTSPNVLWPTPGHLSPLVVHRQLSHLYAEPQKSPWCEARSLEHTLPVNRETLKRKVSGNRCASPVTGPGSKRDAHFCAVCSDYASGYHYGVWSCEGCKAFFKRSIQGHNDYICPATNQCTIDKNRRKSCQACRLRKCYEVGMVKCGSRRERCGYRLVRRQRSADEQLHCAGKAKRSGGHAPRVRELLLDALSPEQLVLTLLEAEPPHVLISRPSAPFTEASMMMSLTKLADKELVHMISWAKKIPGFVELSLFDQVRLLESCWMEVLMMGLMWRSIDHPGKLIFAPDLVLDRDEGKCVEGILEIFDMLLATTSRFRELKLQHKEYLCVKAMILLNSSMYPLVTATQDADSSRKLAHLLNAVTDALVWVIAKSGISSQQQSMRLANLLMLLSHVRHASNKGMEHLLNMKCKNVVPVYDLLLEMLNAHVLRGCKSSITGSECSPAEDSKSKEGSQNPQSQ
Description: Binding affinity to human ERbeta
`C[C@]12CCC3C(CC=C4C[C@@H](O)CC[C@@]43/C=C\Br)C1CC[C@@H]2O` (stereo partly specified): the IC50 was found to be 0.212 µM.

In turn, `C/C=C\[C@]12CC[C@H](O)CC1=CCC1C2CC[C@@]2(C)C1CC[C@@H]2O` (stereo partly specified) registered an IC50 of 0.016 µM.

Compound `CC[C@]12CC[C@H](O)CC1=CCC1C2CC[C@@]2(C)C1CC[C@@H]2O` (stereo partly specified) came in with an IC50 of 0.016 µM.

As to `C=C[C@]12CC[C@H](O)CC1=CCC1C2CC[C@@]2(C)C1CC[C@@H]2O` (stereo partly specified), half-maximal inhibition (IC50) was put at 0.011 µM.

Take `C[C@]12CC[C@H]3[C@@H](CCC4=CC(=O)CC[C@@]43C)[C@@H]1CC[C@@H]2O` [TESTOSTERONE]: the IC50 is greater than 10 µM.

In turn, `CC#C[C@]12CC[C@H](O)CC1=CCC1C2CC[C@@]2(C)C1CC[C@@H]2O` (stereo partly specified) registered an IC50 of 0.381 µM.

In the case of `CO/C=C/[C@]12CC[C@H](O)CC1=CCC1C2CC[C@@]2(C)C1CC[C@@H]2O` (stereo partly specified), the IC50 was found to be 1.3 µM.

`C[C@]12CCC3C(CC=C4C[C@@H](O)CC[C@@]43/C=C/Br)C1CC[C@@H]2O` (stereo partly specified) displayed a 50% inhibitory concentration (IC50) of 0.21 µM.

On to `C[C@]12CCC3C(CC=C4C[C@@H](O)CC[C@@]43CO)C1CC[C@@H]2O` (stereo partly specified), for which the IC50 was found to be 1.75 µM.

Take `C[C@]12CCC3C(CC=C4C[C@@H](O)CC[C@@]43CC=O)C1CC[C@@H]2O` (stereo partly specified): the IC50 came to 1.62 µM. This IC50 and that of the compound before are within 1.5-fold of each other.

Compound `C=CC[C@]12CC[C@H](O)CC1=CCC1C2CC[C@@]2(C)C1CC[C@@H]2O` (stereo partly specified) had a half-inhibitory concentration (IC50) of 0.128 µM.

Regarding `CCC[C@]12CC[C@H](O)CC1=CCC1C2CC[C@@]2(C)C1CC[C@@H]2O` (stereo partly specified), the IC50 was determined as 0.132 µM.

For `C[C@]12CCC3C(CC=C4C[C@@H](O)CC[C@@]43/C=C\F)C1CC[C@@H]2O` (stereo partly specified), half-maximal inhibition (IC50) required 0.025 µM.

The target in the next experiment is T3, Androgen receptor (Homo sapiens, UniProt P10275).
T3 sequence (P10275 whole entry): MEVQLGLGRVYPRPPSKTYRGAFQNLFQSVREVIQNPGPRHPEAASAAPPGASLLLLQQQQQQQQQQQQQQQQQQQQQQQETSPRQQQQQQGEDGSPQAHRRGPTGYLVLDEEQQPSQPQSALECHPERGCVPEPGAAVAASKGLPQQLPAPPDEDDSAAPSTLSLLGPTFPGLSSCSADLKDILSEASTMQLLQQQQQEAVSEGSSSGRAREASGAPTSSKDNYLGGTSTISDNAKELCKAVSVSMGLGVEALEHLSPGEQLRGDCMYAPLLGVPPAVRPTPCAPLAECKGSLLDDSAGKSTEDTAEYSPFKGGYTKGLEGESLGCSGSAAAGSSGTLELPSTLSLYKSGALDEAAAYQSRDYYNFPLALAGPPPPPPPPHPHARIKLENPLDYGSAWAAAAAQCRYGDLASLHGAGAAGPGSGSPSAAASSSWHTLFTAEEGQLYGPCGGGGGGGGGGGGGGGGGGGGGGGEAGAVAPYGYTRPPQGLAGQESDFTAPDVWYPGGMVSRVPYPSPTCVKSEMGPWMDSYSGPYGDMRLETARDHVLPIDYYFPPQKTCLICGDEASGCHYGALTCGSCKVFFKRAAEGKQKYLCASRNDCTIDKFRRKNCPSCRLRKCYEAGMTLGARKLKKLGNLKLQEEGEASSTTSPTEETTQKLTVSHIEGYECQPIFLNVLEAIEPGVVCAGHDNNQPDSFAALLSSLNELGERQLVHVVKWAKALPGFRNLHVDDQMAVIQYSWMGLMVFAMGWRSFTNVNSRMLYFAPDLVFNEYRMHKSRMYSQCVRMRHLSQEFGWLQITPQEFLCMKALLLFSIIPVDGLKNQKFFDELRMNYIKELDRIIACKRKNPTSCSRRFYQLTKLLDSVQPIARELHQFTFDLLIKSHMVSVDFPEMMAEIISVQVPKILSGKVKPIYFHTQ
Description: Inhibitory activity against AR
Take `C[C@]12CCC3C(CC=C4C[C@@H](O)CC[C@@]43/C=C\Br)C1CC[C@@H]2O` (stereo partly specified): the IC50 came to 0.02 µM. That is a double-digit nanomolar value.

As for `CC[C@]12CC[C@H](O)CC1=CCC1C2CC[C@@]2(C)C1CC[C@@H]2O` (stereo partly specified), 0.033 µM corresponded to half-maximal inhibition (IC50).

As for `C=C[C@]12CC[C@H](O)CC1=CCC1C2CC[C@@]2(C)C1CC[C@@H]2O` (stereo partly specified), it took 0.033 µM to reach half-maximal inhibition (IC50).

Take `CC#C[C@]12CC[C@H](O)CC1=CCC1C2CC[C@@]2(C)C1CC[C@@H]2O` (stereo partly specified): the IC50 is 3.73 µM.

In the case of `CO/C=C/[C@]12CC[C@H](O)CC1=CCC1C2CC[C@@]2(C)C1CC[C@@H]2O` (stereo partly specified), half-maximal inhibition (IC50) was put at 4.62 µM.

As to `C[C@]12CCC3C(CC=C4C[C@@H](O)CC[C@@]43/C=C/Br)C1CC[C@@H]2O` (stereo partly specified), the midpoint of inhibition, the IC50, lay at 0.12 µM.

Compound `C[C@]12CCC3C(CC=C4C[C@@H](O)CC[C@@]43CO)C1CC[C@@H]2O` (stereo partly specified) gave an IC50 greater than 5 µM.

In turn, `C[C@]12CCC3C(CC=C4C[C@@H](O)CC[C@@]43CC=O)C1CC[C@@H]2O` (stereo partly specified) returned an IC50 greater than 5 µM.

As to `C=CC[C@]12CC[C@H](O)CC1=CCC1C2CC[C@@]2(C)C1CC[C@@H]2O` (stereo partly specified), the IC50 stood at 1.77 µM.

`CCC[C@]12CC[C@H](O)CC1=CCC1C2CC[C@@]2(C)C1CC[C@@H]2O` (stereo partly specified) yielded an IC50 of 1.77 µM.

`C[C@]12CCC3C(CC=C4C[C@@H](O)CC[C@@]43/C=C\F)C1CC[C@@H]2O` (stereo partly specified) registered an IC50 of 0.011 µM. This IC50 is about 160-fold lower than that of the compound before.

The target in a further experiment is T2, Estrogen receptor beta. Format: functional, cell-based, HEK293. The source holds these as a separate data set.
Description: Effect on transactivation of ALP gene expression in HEK293 cells transfected with hERbeta
As for `C[C@]12CCC3C(CC=C4C[C@@H](O)CC[C@@]43/C=C\Br)C1CC[C@@H]2O` (stereo partly specified), the EC50 was 0.096 µM.

The compound `C/C=C\[C@]12CC[C@H](O)CC1=CCC1C2CC[C@@]2(C)C1CC[C@@H]2O` (stereo partly specified) showed an EC50 of 0.021 µM. Against the preceding compound, the EC50 is about 4.6-fold lower.

As for `C=C[C@]12CC[C@H](O)CC1=CCC1C2CC[C@@]2(C)C1CC[C@@H]2O` (stereo partly specified), a half-maximal effect (EC50) was put at 0.0041 µM.

On to `CC#C[C@]12CC[C@H](O)CC1=CCC1C2CC[C@@]2(C)C1CC[C@@H]2O` (stereo partly specified), for which the midpoint of the response, the EC50, lay at 0.171 µM.

The compound `CO/C=C/[C@]12CC[C@H](O)CC1=CCC1C2CC[C@@]2(C)C1CC[C@@H]2O` (stereo partly specified) returned an EC50 of 0.827 µM.

For `C[C@]12CCC3C(CC=C4C[C@@H](O)CC[C@@]43/C=C/Br)C1CC[C@@H]2O` (stereo partly specified), a half-maximal effect (EC50) was put at 0.067 µM.

`C[C@]12CCC3C(CC=C4C[C@@H](O)CC[C@@]43CO)C1CC[C@@H]2O` (stereo partly specified) showed an EC50 greater than 0.641 µM.

Take `C[C@]12CCC3C(CC=C4C[C@@H](O)CC[C@@]43CC=O)C1CC[C@@H]2O` (stereo partly specified): the EC50 is greater than 1 µM.

Turning to `C=CC[C@]12CC[C@H](O)CC1=CCC1C2CC[C@@]2(C)C1CC[C@@H]2O` (stereo partly specified), the EC50 was determined as 0.148 µM.

`C[C@]12CCC3C(CC=C4C[C@@H](O)CC[C@@]43/C=C\F)C1CC[C@@H]2O` (stereo partly specified) came in with an EC50 of 0.0038 µM.

A further experiment addresses T1, Estrogen receptor. The source holds these as a separate data set.
Description: Binding affinity to human ERalpha
In turn, `C[C@]12CCC3C(CC=C4C[C@@H](O)CC[C@@]43/C=C\Br)C1CC[C@@H]2O` (stereo partly specified) displayed an IC50 greater than 10 µM.

For the compound `C/C=C\[C@]12CC[C@H](O)CC1=CCC1C2CC[C@@]2(C)C1CC[C@@H]2O` (stereo partly specified), inhibition was half-maximal at 1.96 µM (IC50).

Take `CC[C@]12CC[C@H](O)CC1=CCC1C2CC[C@@]2(C)C1CC[C@@H]2O` (stereo partly specified): half-maximal inhibition (IC50) was put at 2.33 µM.

`C=C[C@]12CC[C@H](O)CC1=CCC1C2CC[C@@]2(C)C1CC[C@@H]2O` (stereo partly specified): the IC50 came out at 2.24 µM.

Turning to `CC#C[C@]12CC[C@H](O)CC1=CCC1C2CC[C@@]2(C)C1CC[C@@H]2O` (stereo partly specified), the 50% inhibitory concentration (IC50) is greater than 8.42 µM.

In turn, `CO/C=C/[C@]12CC[C@H](O)CC1=CCC1C2CC[C@@]2(C)C1CC[C@@H]2O` (stereo partly specified) yielded a concentration for half-maximal inhibition (IC50) greater than 10 µM.

For the compound `C[C@]12CCC3C(CC=C4C[C@@H](O)CC[C@@]43/C=C/Br)C1CC[C@@H]2O` (stereo partly specified), the 50% inhibitory concentration (IC50) was found to be 3.98 µM.

The compound `C[C@]12CCC3C(CC=C4C[C@@H](O)CC[C@@]43CO)C1CC[C@@H]2O` (stereo partly specified) registered an IC50 of 6.32 µM. Against the preceding compound, the IC50 is about 1.6-fold higher.

Turning to `C[C@]12CCC3C(CC=C4C[C@@H](O)CC[C@@]43CC=O)C1CC[C@@H]2O` (stereo partly specified), the IC50 is greater than 1 µM.

`C=CC[C@]12CC[C@H](O)CC1=CCC1C2CC[C@@]2(C)C1CC[C@@H]2O` (stereo partly specified): it took 1.74 µM to reach half-maximal inhibition (IC50).

Consider `CCC[C@]12CC[C@H](O)CC1=CCC1C2CC[C@@]2(C)C1CC[C@@H]2O` (stereo partly specified), for which inhibition was half-maximal at 5.16 µM (IC50).

The compound `C[C@]12CCC3C(CC=C4C[C@@H](O)CC[C@@]43/C=C\F)C1CC[C@@H]2O` (stereo partly specified) yielded a half-inhibitory concentration (IC50) of 4.28 µM.

(Values after ChEMBL document CHEMBL1149417 (Bioorg Med Chem Lett, 2006).)
